Results from US20260091020A1, “TREATMENT OF ACUTE CANNABINOID OVERDOSE” (Anebulo Pharmaceuticals, Inc., priority 2022, published 2026).
Where two headings read alike, the source gives them in different places.

Assay: Plasma PK of ANEB-001 and THC, 50 and 100 mg oral Compound 1 with THC (Example 2)
Type: in vivo, human
Conditions: for concentration at 0 h / concentration at 0.33 h / concentration at 0.67 h / concentration at 1 h / concentration at 2 h / concentration at 3 h / concentration at 4 h / concentration at 5 h / concentration at 24 h / AUC(0-t) / Cmax / Tmax: human, in vivo; for Tmax: read-out: THC plasma tmax, Median
Procedure: A phase 2 clinical study was conducted using the design outlined in FIG. 1. Briefly, 60 adult healthy volunteers ages 18-45 (20 per arm) were selected for a randomized, double blind placebo-controlled study. Volunteers were divided into three groups: (1) THC (Δ9-Tetrahydrocannabinol, 10.5 mg)+placebo; (2) THC (10.5 mg)+Compound 1 (50 mg); and (3) THC (10.5 mg)+Compound 1 (100 mg). […] A followup evaluation was also performed after 14 days. Primary endpoints included inhibition of central nervous system effects of THC using (a) visual analog scale “feeling high”; (b) visual analog scale “alertness”; (c) body sway; (d) heart rate. Secondary endpoints included additional efficacy metrics, safety/tolerability, PK, and PK/PD correlations.
Following the general methods of Example 1, pharmacodynamic properties were measured for Compound 1 (FIGS. 13A-13F).

[1] = 10 mg THC + 50 mg ANEB-001, read-out: THC Concentration in Plasma, Mean
[2] = 10 mg THC + 50 mg ANEB-001, read-out: THC Concentration in Plasma, Median
[3] = 10 mg THC + 100 mg ANEB-001, read-out: THC Concentration in Plasma, Mean
[4] = 10 mg THC + 100 mg ANEB-001, read-out: THC Concentration in Plasma, Median
[5] = 10 mg THC + Placebo, read-out: THC Concentration in Plasma, Mean
[6] = 10 mg THC + Placebo, read-out: THC Concentration in Plasma, Median

With `CCCCCc1cc(O)c2c(c1)OC(C)(C)[C@@H]1CCC(C)=C[C@@H]21` [THC, Δ9-tetrahydrocannabinol] the “THC plasma tlag, Median” value (10 mg THC + 50 mg ANEB-001) was 0.00 h, the “THC plasma AUClast, Mean” value (10 mg THC + 100 mg ANEB-001) was 6.128 ng·h/mL and the “THC plasma tlag, Median” value (10 mg THC + 100 mg ANEB-001) was 0.00 h. For the same molecule, the “THC plasma AUClast, Mean” value (10 mg THC + Placebo) was 5.722 ng·h/mL, the “THC plasma Cmax, Median” value (10 mg THC + Placebo) was 2.81 ng/mL and the “THC plasma tlag, Median” value (10 mg THC + Placebo) was 0.00 h. The concentration at 0 h [1] was 0 ng/mL, the concentration at 0 h [2] was 0 ng/mL and the concentration at 0.33 h [1] was 1.27 ng/mL. The concentration at 0.33 h [2] was 0.738 ng/mL, the concentration at 0.67 h [1] was 2.9 ng/mL and the concentration at 0.67 h [2] was 2.41 ng/mL. The concentration at 1 h [1] was 2.76 ng/mL, the concentration at 1 h [2] was 2.6 ng/mL and the concentration at 2 h [1] was 1.4 ng/mL. For the same molecule, the concentration at 2 h [2] was 1.18 ng/mL, the concentration at 3 h [1] was 0.721 ng/mL and the concentration at 3 h [2] was 0.689 ng/mL. The concentration at 4 h [1] was 0.432 ng/mL, the concentration at 4 h [2] was 0.379 ng/mL and the concentration at 5 h [1] was 0.287 ng/mL. It also gave a concentration at 5 h [2] of 0.264 ng/mL, a concentration at 24 h [1] of 0.00555 ng/mL and a concentration at 24 h [2] of 0 ng/mL. For the same molecule, the AUC(0-t) (10 mg THC + 50 mg ANEB-001, read-out: THC plasma AUClast, Geometric Mean) was 5.65 ng·h/mL, the AUC(0-t) (10 mg THC + 50 mg ANEB-001, read-out: THC plasma AUClast, Mean) was 5.98 ng·h/mL and the AUC(0-t) (10 mg THC + 50 mg ANEB-001, read-out: THC plasma AUClast, Median) was 5.51 ng·h/mL. The Cmax (10 mg THC + 50 mg ANEB-001, read-out: THC plasma Cmax, Geometric Mean) was 3.14 ng/mL, the Cmax (10 mg THC + 50 mg ANEB-001, read-out: THC plasma Cmax, Mean) was 3.4 ng/mL and the Cmax (10 mg THC + 50 mg ANEB-001, read-out: THC plasma Cmax, Median) was 3.12 ng/mL. For the same molecule, the Tmax (10 mg THC + 50 mg ANEB-001) was 1 h, the concentration at 0 h [3] was 0 ng/mL and the concentration at 0 h [4] was 0 ng/mL. For the same molecule, the concentration at 0.33 h [3] was 1.72 ng/mL, the concentration at 0.33 h [4] was 0.986 ng/mL and the concentration at 0.67 h [3] was 3.54 ng/mL. It also gave a concentration at 0.67 h [4] of 2.41 ng/mL, a concentration at 1 h [3] of 2.7 ng/mL and a concentration at 1 h [4] of 1.88 ng/mL. It also gave a concentration at 2 h [3] of 1.28 ng/mL, a concentration at 2 h [4] of 1.05 ng/mL and a concentration at 3 h [3] of 0.718 ng/mL. The concentration at 3 h [4] was 0.639 ng/mL, the concentration at 4 h [3] was 0.446 ng/mL and the concentration at 4 h [4] was 0.35 ng/mL. The concentration at 5 h [3] was 0.314 ng/mL, the concentration at 5 h [4] was 0.228 ng/mL and the concentration at 24 h [3] was 0.006 ng/mL. For the same molecule, the concentration at 24 h [4] was 0 ng/mL, the AUC(0-t) (10 mg THC + 100 mg ANEB-001, read-out: THC plasma AUClast, Geometric Mean) was 5.3 ng·h/mL and the AUC(0-t) (10 mg THC + 100 mg ANEB-001, read-out: THC plasma AUClast, Median) was 4.94 ng·h/mL. The Cmax (10 mg THC + 100 mg ANEB-001, read-out: THC plasma Cmax, Geometric Mean) was 3.08 ng/mL, the Cmax (10 mg THC + 100 mg ANEB-001, read-out: THC plasma Cmax, Mean) was 3.77 ng/mL and the Cmax (10 mg THC + 100 mg ANEB-001, read-out: THC plasma Cmax, Median) was 2.46 ng/mL. It also gave a Tmax (10 mg THC + 100 mg ANEB-001) of 0.67 h, a concentration at 0 h [5] of 0 ng/mL and a concentration at 0 h [6] of 0 ng/mL. The concentration at 0.33 h [5] was 1.17 ng/mL, the concentration at 0.33 h [6] was 0.776 ng/mL and the concentration at 0.67 h [5] was 2.29 ng/mL. For the same molecule, the concentration at 0.67 h [6] was 1.81 ng/mL, the concentration at 1 h [5] was 2.49 ng/mL and the concentration at 1 h [6] was 2.27 ng/mL. It also gave a concentration at 2 h [5] of 1.44 ng/mL, a concentration at 2 h [6] of 1.6 ng/mL and a concentration at 3 h [5] of 1.01 ng/mL. The concentration at 3 h [6] was 0.838 ng/mL, the concentration at 4 h [5] was 0.455 ng/mL and the concentration at 4 h [6] was 0.443 ng/mL. It also gave a concentration at 5 h [5] of 0.285 ng/mL, a concentration at 5 h [6] of 0.248 ng/mL and a concentration at 24 h [5] of 0 ng/mL. It also gave a concentration at 24 h [6] of 0 ng/mL, an AUC(0-t) (10 mg THC + Placebo, read-out: THC plasma AUClast, Geometric Mean) of 5.16 ng·h/mL and an AUC(0-t) (10 mg THC + Placebo, read-out: THC plasma AUClast, Median) of 4.96 ng·h/mL. For the same molecule, the Cmax (10 mg THC + Placebo, read-out: THC plasma Cmax, Geometric Mean) was 2.76 ng/mL, the Cmax (10 mg THC + Placebo, read-out: THC plasma Cmax, Mean) was 3.15 ng/mL and the Tmax (10 mg THC + Placebo) was 1 h.
